In publication PMC10636063, “Progesterone activation of β1-containing BK channels involves two binding sites” (Nature Communications, 2023):
Where “and” joins values, the source holds several entries; their conditions need not be identical. Identical values can stand only once.

Assays:
[1] = system: slo1 (cbv1 isoform)+β4 BK channels; experiment: Channel activity (NPo) in POPE/POPS bilayers, cbv1+β4; assay type: biochemical, rat; details: 10 μM
Source text: (§1) BK channel-forming slo1 cDNA (cbv1 isoform; AY330293) was cloned from rat cerebral artery SM cells, and inserted into pcDNA3.1 vector as described. BK β1 cDNA (KCNMB1 product; NP_011452; FJ154955) were isolated from rat cerebral artery SM cells and cloned as described. β4 cDNA (KCNMB4; NP_055320; AY028605) were generously provided by Dr. Ligia Toro. CHO cells were transiently transfected with cbv1 ± β1-, or β4-carrying pcDNA3.1 using X-tremeGENE HP (Sigma-Aldrich). […]
(§2) Proteins for electrophysiological recordings in artificial lipid bilayers remained untagged. […] BK channel-mediated ionic current was recorded in planar lipid bilayers consisting of a POPE:POPS 3:1 (w/w) mixture. […]
(§3) Patch-clamp and bilayer data were analyzed using Clampfit 10.7 software (Molecular Devices). […] Drug-induced NPo changes were determined by comparing baseline NPo (i.e., NPo with the patch/cell perfused with bath solution) to the NPo from the same patch/cell exposed to the agent under study (DMSO/PROG/oxime) dissolved in bath solution. NPo and mean open time values were automatically calculated using Clampfit 10.7, the latter using a 50% threshold detection event.

cbv1+β1Y32F = biological target: T1, cbv1+β1Y32F (Rattus norvegicus, UniProt P97678, Y32F); experiment: Channel activity (NPo) in POPE/POPS bilayers, cbv1+β1Y32F; assay type: biochemical
T1 construct: made in house; host or cells: CHO cells, transient transfection; sucrose-gradient membrane preparation
Source text: as §1, §2, §3

cbv1+β1Y42V = biological target: T2, cbv1+β1Y42V (Rattus norvegicus, UniProt P97678, Y42V); experiment: Channel activity (NPo) in POPE/POPS bilayers, cbv1+β1Y42V; assay type: biochemical
T2 construct: made in house; host or cells: CHO cells, transient transfection; sucrose-gradient membrane preparation
Source text: as §1, §2, §3

[2] = system: BK channel, construct not given; experiment: Channel activity (NPo) time course, Fig 4E block headed only '10 uM PROG'; assay type: biochemical
[3] = biological target: T3, slo1 (cbv1) homotetramers (Rattus norvegicus, UniProt Q62976); experiment: Channel activity (NPo) in POPE/POPS bilayers, cbv1 homomers; assay type: biochemical
T3 construct: made in house; host or cells: CHO cells, transient transfection; sucrose-gradient membrane preparation
Source text: (§4) BK channel-forming slo1 cDNA (cbv1 isoform; AY330293) was cloned from rat cerebral artery SM cells, and inserted into pcDNA3.1 vector as described. BK β1 cDNA (KCNMB1 product; NP_011452; FJ154955) were isolated from rat cerebral artery SM cells and cloned as described. β4 cDNA (KCNMB4; NP_055320; AY028605) were generously provided by Dr. Ligia Toro. CHO cells were transiently transfected with cbv1 ± β1-, or β4-carrying pcDNA3.1 using X-tremeGENE HP (Sigma-Aldrich). Mutations to β1/4 cDNAs were conducted by Genscript, with sequences being confirmed to be >99% identical to KCNMB1 product; NP_011452 or β4 KCNMB4; NP_055320; respectively. β1/4 and mutant constructs were flag-tagged (DYKDDDDK-tag) by Genscript services for subsequent immunoprecipitation and use in microscale thermophoresis studies.
(§5) Proteins for electrophysiological recordings in artificial lipid bilayers remained untagged. Cells were transiently transfected as described above, pelleted and re-suspended on ice in 10 ml of buffer solution of the following composition (mM): 30 KCl, 2 MgCl2, 10 HEPES, 5 EGTA; pH 7.2. A membrane preparation was obtained using a sucrose gradient as described. Aliquots were stored at −80 °C. BK channel-mediated ionic current was recorded in planar lipid bilayers consisting of a POPE:POPS 3:1 (w/w) mixture. Lipid mixtures were dried under N2 and re-suspended in 25 mg/ml of n-decane BK currents following incorporation into horizontal bilayers at 300/30 mM cis/trans gradient as detailed elsewhere. Ion currents were obtained during a 10-min gap-free recording at 0 mV in the presence of 0.01, 10 μM PROG, 10 μM PROG-oxime, or vehicle control (dimethyl sulfoxide; DMSO). Currents were obtained in gap-free mode using a Warner BC-525D amplifier, low pass-filtered at 1 kHz and sampled at 5 kHz with Digidata 1550B/pCLAMP 11 (Molecular Devices). For comparison with previous data from us[16],[17],[45]–[47], studies were conducted at 20–22 °C. PROG stock, oxime stock or vehicle control (DMSO) was added to the bilayer cis chamber to reach final concentrations (0.01–10 µM), with all compounds being dissolved with the same concentration of DMSO (0.1%); n = 5–10 for each group.
(§6) Patch-clamp and bilayer data were analyzed using Clampfit 10.7 software (Molecular Devices). NPo was used as an index of channel steady-state activity where N = number of channels in the patch (defined as a maximal number of opening levels at Po≤1) and Po=single channel open probability. Drug-induced NPo changes were determined by comparing baseline NPo (i.e., NPo with the patch/cell perfused with bath solution) to the NPo from the same patch/cell exposed to the agent under study (DMSO/PROG/oxime) dissolved in bath solution. NPo and mean open time values were automatically calculated using Clampfit 10.7, the latter using a 50% threshold detection event.

[4] = biological target: T4, smooth muscle myocyte BK channels (KCNMB1-/-) (Mus musculus, UniProt Q08460); experiment: Inside-out patch-clamp of MCA smooth muscle myocytes, KCNMB1-/- mice; assay type: cell-based; details: for normalized NPo, time course Fig 5C: beta1KO, PROG 10uM
T4 construct: endogenous in cells; host or cells: freshly isolated middle cerebral artery smooth muscle cells of KCNMB1-/- mice, inside-out patches
Protocol: Ionic currents were recorded from excised, inside-out (I/O) patches. […] In all experiments, free [Ca^2+] in solution was adjusted to the desired value by adding the appropriate amount of Ca^2+ from a 1 mM CaCl2 stock. An agar bridge with Cl^- as main anion was used as ground electrode. Solutions were applied onto the cytosolic side of I/O patches using an automated, pressurized system (Octaflow; […] Ionic currents at single channel resolution were recorded using an EPC8 amplifier (HEKA) at 1 kHz. Data were digitized at 5 kHz using a Digidata […] A/D converter and pCLAMP 8.0 (Molecular Devices); n = 5/group. […] Drug-induced NPo changes were determined by comparing baseline NPo (i.e., NPo with the patch/cell perfused with bath solution) to the NPo from the same patch/cell exposed to the agent under study (DMSO/PROG/oxime) dissolved in bath solution.

cbv1+β1Y32V = biological target: T5, cbv1+β1Y32V (Rattus norvegicus, UniProt P97678, Y32V); experiment: Channel activity (NPo) in POPE/POPS bilayers, cbv1+β1Y32V; assay type: biochemical; details: for normalized NPo, time course Fig 2E: Y32V PROG
T5 construct: made in house; host or cells: CHO cells, transient transfection; sucrose-gradient membrane preparation
Source text: as §4, §5, §6

[5] = time 1 min (normalisation reference)

T2 sequence (P97678 whole entry Y42V): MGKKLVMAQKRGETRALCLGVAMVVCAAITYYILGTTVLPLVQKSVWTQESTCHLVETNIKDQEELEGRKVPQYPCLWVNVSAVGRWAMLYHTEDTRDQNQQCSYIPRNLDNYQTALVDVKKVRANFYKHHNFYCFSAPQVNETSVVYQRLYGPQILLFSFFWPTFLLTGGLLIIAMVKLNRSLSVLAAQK
T2 sequence (Q62976 1-1148 isoform Q62976-2 partner): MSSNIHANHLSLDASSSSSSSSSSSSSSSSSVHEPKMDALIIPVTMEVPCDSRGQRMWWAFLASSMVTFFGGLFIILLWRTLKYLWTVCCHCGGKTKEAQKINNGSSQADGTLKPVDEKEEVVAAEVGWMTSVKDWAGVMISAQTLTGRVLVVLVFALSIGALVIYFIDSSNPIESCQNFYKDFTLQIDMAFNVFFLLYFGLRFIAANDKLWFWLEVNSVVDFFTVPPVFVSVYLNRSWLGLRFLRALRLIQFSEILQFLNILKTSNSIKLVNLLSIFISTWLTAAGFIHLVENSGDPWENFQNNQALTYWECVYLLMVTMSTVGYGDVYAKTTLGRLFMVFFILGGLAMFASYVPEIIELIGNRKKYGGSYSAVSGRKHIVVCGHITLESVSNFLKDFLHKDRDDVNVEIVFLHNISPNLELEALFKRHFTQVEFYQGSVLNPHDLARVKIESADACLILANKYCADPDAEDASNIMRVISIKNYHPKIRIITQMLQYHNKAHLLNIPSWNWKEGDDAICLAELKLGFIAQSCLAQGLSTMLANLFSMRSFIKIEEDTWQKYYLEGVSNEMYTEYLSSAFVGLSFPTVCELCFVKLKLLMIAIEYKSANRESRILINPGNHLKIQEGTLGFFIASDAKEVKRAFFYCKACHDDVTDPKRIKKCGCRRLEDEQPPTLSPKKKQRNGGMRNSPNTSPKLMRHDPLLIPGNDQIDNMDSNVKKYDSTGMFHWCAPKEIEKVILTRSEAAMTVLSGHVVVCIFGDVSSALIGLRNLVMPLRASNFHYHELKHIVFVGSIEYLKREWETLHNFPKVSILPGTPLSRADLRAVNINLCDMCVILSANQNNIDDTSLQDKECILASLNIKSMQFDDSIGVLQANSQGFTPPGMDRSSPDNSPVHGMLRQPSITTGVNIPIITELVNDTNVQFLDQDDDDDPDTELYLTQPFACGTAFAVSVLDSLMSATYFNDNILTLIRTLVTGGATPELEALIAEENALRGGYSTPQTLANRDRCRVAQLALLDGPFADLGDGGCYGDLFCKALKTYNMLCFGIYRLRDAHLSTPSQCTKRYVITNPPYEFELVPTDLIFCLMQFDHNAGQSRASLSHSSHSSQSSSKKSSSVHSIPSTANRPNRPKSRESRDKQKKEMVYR
T3 sequence (Q62976 1-1148 isoform Q62976-2): as the sequence (Q62976 1-1148 isoform Q62976-2 partner) above
T5 sequence (P97678 whole entry Y32V): as the sequence (P97678 whole entry Y42V) above, with Y32V, V42Y counted along it
T5 sequence (Q62976 1-1148 isoform Q62976-2 partner): as the sequence (Q62976 1-1148 isoform Q62976-2 partner) above
T1 sequence (P97678 whole entry Y32F): as the sequence (P97678 whole entry Y42V) above, with Y32F, V42Y counted along it
T1 sequence (Q62976 1-1148 isoform Q62976-2 partner): as the sequence (Q62976 1-1148 isoform Q62976-2 partner) above
T4 sequence (Q08460 whole entry): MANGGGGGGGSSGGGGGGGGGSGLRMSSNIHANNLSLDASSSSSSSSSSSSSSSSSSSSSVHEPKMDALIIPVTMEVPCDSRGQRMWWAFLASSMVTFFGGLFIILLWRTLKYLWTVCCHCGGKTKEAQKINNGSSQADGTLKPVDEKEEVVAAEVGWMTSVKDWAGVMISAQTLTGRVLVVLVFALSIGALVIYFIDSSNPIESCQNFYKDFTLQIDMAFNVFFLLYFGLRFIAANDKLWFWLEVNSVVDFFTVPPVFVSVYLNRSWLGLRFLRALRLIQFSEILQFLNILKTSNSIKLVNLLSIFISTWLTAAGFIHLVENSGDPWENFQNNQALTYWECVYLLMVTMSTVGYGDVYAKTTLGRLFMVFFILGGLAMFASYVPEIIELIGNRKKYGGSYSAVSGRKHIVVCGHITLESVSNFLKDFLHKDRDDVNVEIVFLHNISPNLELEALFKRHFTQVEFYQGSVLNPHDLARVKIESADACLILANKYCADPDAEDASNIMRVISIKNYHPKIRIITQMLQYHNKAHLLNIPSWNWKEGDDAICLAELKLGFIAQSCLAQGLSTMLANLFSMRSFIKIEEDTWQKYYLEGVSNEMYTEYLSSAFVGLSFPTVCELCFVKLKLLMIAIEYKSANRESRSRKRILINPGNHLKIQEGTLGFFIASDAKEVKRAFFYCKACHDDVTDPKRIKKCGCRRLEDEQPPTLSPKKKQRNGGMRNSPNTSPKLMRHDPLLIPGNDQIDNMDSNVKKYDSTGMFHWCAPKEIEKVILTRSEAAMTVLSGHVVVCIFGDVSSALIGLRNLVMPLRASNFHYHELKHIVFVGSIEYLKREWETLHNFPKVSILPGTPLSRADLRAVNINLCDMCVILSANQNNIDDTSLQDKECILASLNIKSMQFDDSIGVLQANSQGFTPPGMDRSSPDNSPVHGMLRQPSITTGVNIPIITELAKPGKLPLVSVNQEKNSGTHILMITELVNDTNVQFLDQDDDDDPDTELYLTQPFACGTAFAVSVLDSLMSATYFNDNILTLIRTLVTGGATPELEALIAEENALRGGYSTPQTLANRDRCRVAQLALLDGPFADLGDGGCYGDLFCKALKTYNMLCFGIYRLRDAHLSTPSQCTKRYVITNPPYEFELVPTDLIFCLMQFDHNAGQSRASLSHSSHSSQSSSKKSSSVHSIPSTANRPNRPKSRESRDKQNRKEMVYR

CC(=O)[C@H]1CC[C@H]2[C@@H]3CCC4=CC(=O)CC[C@]4(C)[C@H]3CC[C@]12C [PROG, Progesterone]
action on channel activity (NPo) [1]: readily and robustly activated
action on channel activity (NPo) (cbv1+β1Y32F; 10 µM, vs DMSO): significantly activated
channel activity (NPo) with prog, normalized (cbv1+β1Y32F; SFig3A, cbv1+y32f, individual bilayers): 3.7931 and 1.379 and 2.626 and 0.9886 and 1.589
action on channel activity (NPo) (cbv1+β1Y42V; 10 µM, vs DMSO): significantly activated
channel activity (NPo) with prog, normalized (cbv1+β1Y42V; SFig3A, cbv1+y42v, individual bilayers): 1.4717 and 1.041 and 1.9292 and 1.306 and 1.182
normalized NPo, time course Fig 4E [2, 5]: 1
normalized NPo, time course Fig 4E ([2]; time 2 min): 0.9853 and 1 and 0.9322 and 1.014 and 0.7178
normalized NPo, time course Fig 4E ([2]; time 4 min): 1.015 and 1.069 and 1.029 and 1.047 and 1.067
normalized NPo, time course Fig 4E ([2]; time 5 min): 1.11 and 1.053 and 1.066 and 1.023 and 1.182
normalized NPo, time course Fig 4E ([2]; time 6 min): 1.088 and 1.041 and 1.129 and 1.028 and 1.207
normalized NPo, time course Fig 4E ([2]; time 7 min): 1.162 and 1.118 and 1.064 and 0.8935 and 1.1318
normalized NPo, time course Fig 4E ([2]; time 8 min): 1.096 and 1.061 and 1.045 and 1.148 and 1.63
normalized NPo, time course Fig 4E ([2]; time 10 min): 1.11 and 0.7114 and 1.049 and 1.394 and 1.416
NPo/NPobasal ([3]; 10 µM PROG, min 2, single records): 1.014 and 0.7178 and 0.9853 and 1 and 0.9322
NPo/NPobasal ([3]; 10 µM PROG, min 4, single records): 1.047 and 1.067 and 1.015 and 1.069 and 1.029
NPo/NPobasal ([3]; 10 µM PROG, min 5, single records): 1.023 and 1.182 and 1.11 and 1.053 and 1.066
NPo/NPobasal ([3]; 10 µM PROG, min 6, single records): 1.028 and 1.207 and 1.088 and 1.041 and 1.129
NPo/NPobasal ([3]; 10 µM PROG, min 7, single records): 0.8935 and 1.1318 and 1.162 and 1.118 and 1.064
NPo/NPobasal ([3]; 10 µM PROG, min 8, single records): 1.148 and 1.63 and 1.096 and 1.061 and 1.045
NPo/NPobasal ([3]; 10 µM PROG, min 10, single records): 1.394 and 1.416 and 1.11 and 0.7114 and 1.049
maximal activity (NPo/NPobasal) ([3]; 10 µM PROG, single records (Fig 1I)): 1.053 and 1.066 and 1.023 and 1.182 and 1.11
action on channel activity (NPo) ([3]; 10 μM, up to 10 min): consistently failed to activate the homomeric channels
action on BK channel activity ([4]; 10 µM, I/O patches, 30 μM free Ca2+): consistently resistant to PROG
normalized NPo, scatter Fig 5D ([4]; KO, PROG, single cells (same values as 5C time 13)): 1.285 and 0.9695 and 0.9053 and 0.9515 and 1.0301
normalized NPo, time course Fig 5C ([4]; time 1 (normalisation reference), columns = cell number): 1
normalized NPo, time course Fig 5C ([4]; time 2): 0.9681 and 1.062 and 1.027 and 1.211 and 0.9954
normalized NPo, time course Fig 5C ([4]; time 3): 0.9157 and 1.074 and 1.107 and 1.076 and 1.008
normalized NPo, time course Fig 5C ([4]; time 4): 1.013 and 0.9333 and 1.023 and 1.02 and 0.9985
normalized NPo, time course Fig 5C ([4]; time 5): 0.8445 and 0.9395 and 0.9666 and 0.9766 and 1.044
normalized NPo, time course Fig 5C ([4]; time 6): 1.335 and 0.9407 and 1.013 and 1.133 and 0.9069
normalized NPo, time course Fig 5C ([4]; time 7): 1.401 and 0.9722 and 0.9298 and 1.141 and 1.008
normalized NPo, time course Fig 5C ([4]; time 8): 0.9307 and 0.9753 and 1 and 1.059 and 0.9374
normalized NPo, time course Fig 5C ([4]; time 9): 0.8843 and 0.9534 and 0.8763 and 1.168 and 1.029
normalized NPo, time course Fig 5C ([4]; time 10): 0.9107 and 1 and 0.9833 and 1.22 and 0.9731
normalized NPo, time course Fig 5C ([4]; time 11): 0.9343 and 1.019 and 1.187 and 1.237 and 0.9145
normalized NPo, time course Fig 5C ([4]; time 13): 0.9053 and 0.9515 and 1.0301 and 1.285 and 0.9695
normalized NPo, time course Fig 5C ([4]; time 14): 0.872 and 0.9873 and 0.9766 and 1.12 and 1.0626
normalized NPo, time course Fig 5C ([4]; time 15): 0.8834 and 0.9392 and 0.9933 and 1.107 and 1.032
normalized NPo, time course Fig 5C ([4]; time 16): 0.8292 and 1.033 and 0.8763 and 1.072 and 0.8061
normalized NPo, time course Fig 5C ([4]; time 17): 0.881 and 1.326 and 0.8485 and 1.237 and 0.7481
normalized NPo, time course Fig 5C ([4]; time 18): 0.8971 and 1.152 and 0.7759 and 1.189 and 1.06
normalized NPo, time course Fig 5C ([4]; time 19): 0.8576 and 1.179 and 0.7388 and 1.176 and 0.8214
normalized NPo, time course Fig 5C ([4]; time 20): 0.8348 and 0.9401 and 0.8127 and 1.189 and 0.8275
normalized NPo, time course Fig 5C ([4]; time 21): 0.9702 and 1.112 and 0.8729 and 1.098 and 1.041
normalized NPo, time course Fig 5C ([4]; time 22): 0.9222 and 1.09 and 0.9773 and 1.02
action on channel activity (NPo) (cbv1+β1Y32V; 10 µM, vs DMSO): effectively abolished PROG action
normalized NPo, time course Fig 2E (cbv1+β1Y32V; [5]): 1
normalized NPo, time course Fig 2E (cbv1+β1Y32V; time 3 min): 1.125 and 0.8919 and 0.9083 and 0.945 and 0.929
normalized NPo, time course Fig 2E (cbv1+β1Y32V; time 5 min): 0.9853 and 0.9339 and 0.8202 and 0.8981 and 0.6799
normalized NPo, time course Fig 2E (cbv1+β1Y32V; time 6 min): 1.106 and 1.228 and 1.117 and 1.276 and 0.8487
normalized NPo, time course Fig 2E (cbv1+β1Y32V; time 7 min): 1.144 and 0.9028 and 1.206 and 0.9453
normalized NPo, time course Fig 2E (cbv1+β1Y32V; time 8 min): 0.6757 and 1.202 and 0.918 and 1.1397
normalized NPo, time course Fig 2E (cbv1+β1Y32V; time 9 min): 0.5676 and 0.9266 and 0.822 and 1.088
normalized NPo, time course Fig 2E (cbv1+β1Y32V; time 10 min): 0.7195 and 0.8661 and 0.9555 and 1.102
